US20260183411A1, “TARGETING SORTILIN” (priority 2024, published 2026)
Where a SMILES comes first, the peptide text is derived from it.

How the values were obtained:
MDA-MB-231 xenograft = assay: MDA-MB-231 murine xenograft efficacy model; type: in vivo, mouse
Procedure: Murine xenograft experiments were conducted at WuXi AppTec and/or Charles River Laboratories and the care and use of animals was conducted in accordance with the regulations of the Association for Assessment and Accreditation of Laboratory Animal Care (AAALAC). MDA-MB-231 tumor cells (ATCC, Manassas, VA, cat #HTB-26) were grown and maintained in L15 medium supplemented with 10% heat inactivated fetal bovine serum, 1% Antibiotic-Antimycotic, and L-glutamine (2 mM) at 37° C. in an atmosphere in 5% CO2, 95% air. BALB/c Nude, female, 6-8 weeks, weighing approximately 18-22 g were purchased from Vital River Laboratory Animal Technology Co., LTD. Mice were inoculated subcutaneously at the right flank with MDA-MB-231 tumor cells (e.g., triple negative breast cancer cells) (10×10^6) in 0.2 mL of PBS with Matrigel (1:1) for tumor development. Animals were randomized and treatment was started when the average tumor volume reached approximately 150-200 mm^3 for the efficacy study. Dosing volume was adjusted based on body weight and was administered at 10 mL/Kg. […] Free MMAE payload was also tested, and similarly dissolved in 25 mM Histidine 10% sucrose pH 7 and one or more of the following doses, 0.6, 0.06 mg/kg, were administered to the mice i.v. at a QW×4 schedule. Tumor sizes were measured twice weekly in two dimensions using a caliper, and the volume in mm^3 calculated using the formula: V=0.5 a×b^2, where a and b are the long and short diameters of the tumor, respectively. TGI was calculated for each group using the formula: TGI (%)=[1−(Ti−T0)/(Vi−V0)]×100; where Ti is the average tumor volume of a treatment group on a given day, TO is the average tumor volume of the treatment group on the first day of treatment, Vi is the average tumor volume of the vehicle control group on the same day with Ti, and V0 is the average tumor volume of the vehicle group on the first day of treatment.
To characterize the effects of the MMAE payload alone, we included free MMAE at molar equivalency to PDCs, and tested at 0.6 and 0.06 mg/kg, as separate arms.
To characterize the effects of the MMAE payload alone, we included free MMAE at molar equivalency to PDCs, and tested at 0.6 mg/kg.

[1] = Murine plasma stability assay; type: in vitro ADME; conditions: mouse, 2 μM, 37° C., read-out: Murine plasma stability assay, T1/2
Procedure: Frozen plasma was thawed at 37° C. and centrifuged at 4000 rpm to remove any clots and transferred to 96-well reaction plates by WuXi AppTec. Test compounds were added to the reaction plate at a final concentration of 2 μM and either stopped immediately or incubated at 37° C. for 5 minutes, 10 minutes, 30 minutes, 60 minutes, or 120 minutes. At the end of incubation, stop solution consisting of 200 ng/mL tolbutamide and 200 ng/mL labetalol in ACN was added to precipitate protein and mixed thoroughly. Samples were then transferred to a bioanalysis plate and shaken for 10 minutes prior to HPLC-MS/MS analysis of percent remaining compound.
Table 14 tabulates the plasma stability for each of the three PDCs tested.

[2] = Murine hematotoxicity assay; type: in vivo, mouse; conditions: 3 mg/kg i.v. QW×4, BALB/c mice
Procedure: (§1) Murine hematotoxicity experiments were conducted at Charles River Laboratories and the care and use of animals was conducted in accordance with the regulations of the Association for Assessment and Accreditation of Laboratory Animal Care (AAALAC). Wild type BALB/c, female, 7-8 weeks, weighing approximately 18-22 g were randomized and dosed intravenously with control or test articles at a QW×4 schedule. Dosing volume was adjusted based on body weight and was administered at 10 mL/Kg. PDCs were dissolved in 25 mM Histidine 10% sucrose pH 7 and 3 mg/kg was administered. Free MMAE payload was also tested, and similarly dissolved in 25 mM Histidine 10% sucrose pH 7 and administered to the mice at a dose of […] by i.v. injection at a QW×4 schedule. 3 days following each dose, 150 μL of whole blood was collected via submandibular method and placed in K2 EDTA tubes stored on ice. Blood neutrophil counts were performed on the day of collection by IDEXX labs. Body weights were recorded twice a week until study endpoint.
as §1, with “As outlined in the material” for “Murine hematotoxicity experiments were conducted at Charles River Laboratories”, “methods” for “the care and use”, “Example 1, wild” for “animals was conducted in accordance with the regulations of the Association for Assessment and Accreditation of Laboratory Animal Care (AAALAC). Wild”, “PDCs were dissolved in 25 mM Histidine 10% sucrose pH 7 and 3 mg/kg was administered.” left out

[3] = Murine serum stability assay; type: in vitro ADME, mouse; conditions: mouse, serum; linear peptides, Table 11; read-out: Murine serum stability assay, T1/2
Procedure: Serum was drawn from male CD-1 mice by Pharmidex. Lyophilized peptides were solubilized in DMSO and then further diluted into male mouse (CD-1) serum at 37° C. in duplicates. The reaction was incubated at 37° C. and samples extracted at 6 time points: 0, 0.16, 0.5, 1, 3, and 6 hrs. Acetonitrile (ACN) with an internal standard (tolbutamide) was added to stop the incubation. Samples were centrifuged, and the supernatant was analyzed by HPLC-MS/MS for the parent compound.

[4] = Dynamic light scattering (solubility/aggregation); type: physicochemical; conditions: working concentrations (250 nM, PBS, pH 7.4)
Procedure: Samples were spun down on a bench top centrifuge, 15 minutes, 15,000 rpm, room temperature, to pellet any aggregated peptide/dust before taking a measurement. Visual inspection of the tubes was used to identify if any large pellets were formed, which is indicative of large aggregates. […] The plate was then transferred and read on the DLS instrument (Wyatt Technology DynaPro Plate Reader III) at 25° C.

Cyno SORT1 = assay: SPR binding, Cyno SORT1; conditions: unconjugated peptide w/conjugation handles
Procedure: SPR analysis was performed on Series S CM5 chips (Cytiva) using a Biacore 8K instrument (Cytiva). Sensorgrams were double-referenced by subtracting the response on both a reference flow cell and a blank sample. Human SORT1 (78-755)-His (Acrobiosystems), human SORT1 (78-755)-His(GenScript), mouse SORT1 (76-753)-His (R&D Systems), rat SORT1 (76-752)-His (GenScript), and cyno SORT1 (76-753)-His (GenScript) were diluted to 20-60 μg/mL in 10 mM sodium acetate pH 4.5 buffer and immobilized onto Series S CM5 chips using amine coupling at a flow rate of 10 μL/min for 45-100 s.
For the single-cycle kinetics analysis runs, a running buffer of 1×PBS pH 7.4, 0.005% Tween-20 was used. Ten start-up cycles and a blank cycle preceded each analysis run. […] The kinetic rate constants (ka and kd) and the equilibrium binding constant (Kd) were calculated using a 1:1 kinetic binding model on the Biacore Insight Evaluation Software (Cytiva).
SPR analysis was performed on Series S CM5 chips (Cytiva) using a Biacore 8K instrument (Cytiva). […] The kinetic rate constants (ka and […]) and the equilibrium binding constant (Kd) were calculated using a 1:1 kinetic binding model on the Biacore Insight Evaluation Software (Cytiva). […] The SORT1 affinities of the conjugates were determined to be peptide 2 conjugate >peptide 1 conjugate >peptide 3 conjugate.

| SMILES | half-life [3] [min] | solubility (DLS) [4] | Cyno Ka Kd (Cyno SORT1) [nM] | also measured |
| --- | --- | --- | --- | --- |
| CCCC[C@@H]1NC(=O)[C@H](CCCNC(=N)N)NC(=O)[C@H](CCCCNC(=O)CN(C)C(=O)CN(C)C(=O)CN(C)C(=O)CN(C)C(=O)CCNC(=O)CCCC(=O)N[C@H](C(=O)N[C@@H](CCCNC(N)=O)C(=O)Nc2ccc(COC(=O)N(C)[C@H](C(=O)N[C@H](C(=O)N(C)[C@@H]([C@@H](C)CC)[C@@H](CC(=O)N3CCC[C@H]3[C@H](OC)[C@@H](C)C(=O)N[C@H](C)[C@@H](O)c3ccccc3)OC)C(C)C)C(C)C)cc2)C(C)C)NC(=O)[C@H](CC(N)=O)NC(=O)[C@H](CCC(=O)O)NC(=O)[C@@H](NC(=O)[C@H](Cc2c[nH]c3ccccc23)NC(=O)[C@H](CCCNC(=N)N)NC(C)=O)CSSC[C@@H](C(=O)N[C@@H](CCCNC(=N)N)C(=O)N[C@@H](CCC(N)=O)C(=O)N[C@H](C(=O)N[C@@H](CC(C)(C)C)C(=O)O)C(C)(C)C)NC(=O)[C@H]([C@@H](C)O)NC(=O)[C@H](Cc2ccccc2)NC1=O [Arb_cyclic_G23-PDC] |  |  |  | tumor growth inhibited relative to vehicle (MDA-MB-231 xenograft; 3 mg/kg i.v. QW×4, day 22): 68%; body weight loss (Example 8) (MDA-MB-231 xenograft; PDCs 3 mg/kg, free MMAE at molar equivalency (0.6 mg/kg)): body weight loss tracked each other; half-life [1]: 57.4 min; blood neutrophil counts compared to vehicle or MMAE treatment [2]: reduced neutrophil counts |
| CC(C)C[C@H](NC(=O)[C@H](CCCNC(=N)N)NC(=O)[C@H](CC(C)C)NC(=O)[C@H](C)NC(=O)[C@H](CC(C)C)NC(=O)[C@H](CCCNC(=N)N)NC(=O)[C@H](CCC(N)=O)NC(=O)[C@H](CC(C)C)NC(=O)[C@H](C)NC(=O)[C@@H]1CCCN1C(=O)[C@H](Cc1c[nH]c2ccccc12)NC(=O)[C@@H]1CCCN1C(=O)[C@H](C)NC(=O)[C@H](CCCNC(=N)N)NC(=O)[C@@H]1CCCN1C(=O)[C@H](CC(=O)O)NC(=O)[C@@H](N)CC(=O)O)C(=O)O [PRGN_RL] | 27.7 | good solubility |  |  |
| CC(C)C[C@H](NC(=O)[C@H](CC(C)C)NC(=O)[C@H](CCC(N)=O)NC(=O)[C@H](CCCNC(=N)N)NC(=O)[C@H](CC(C)C)NC(=O)[C@H](C)NC(=O)[C@@H]1CCCN1C(=O)[C@H](CC(=O)O)NC(=O)[C@H](CCCNC(=N)N)NC(=O)[C@H](CC(C)C)NC(=O)[C@@H]1CCCN1C(=O)[C@H](C)NC(=O)[C@H](CC(=O)O)NC(=O)[C@H](Cc1c[nH]c2ccccc12)NC(=O)[C@H](CCCNC(=N)N)NC(=O)[C@@H]1CCCN1C(=O)[C@H](C)N)C(=O)O [PRGN_WT] | 3.16 | good solubility |  |  |
| CC(C)C[C@H](NC(=O)[C@H](C)NC(=O)[C@@H]1CCCN1C(=O)[C@H](CC(=O)O)NC(=O)[C@H](CCCNC(=N)N)NC(=O)[C@H](CC(C)C)NC(=O)[C@@H]1CCCN1C(=O)[C@H](C)NC(=O)[C@H](CC(=O)O)NC(=O)[C@H](Cc1c[nH]c2ccccc12)NC(=O)[C@H](CCCNC(=N)N)NC(=O)[C@@H]1CCCN1C(=O)[C@H](C)N)C(=O)N[C@@H](CCCNC(=N)N)C(=O)N[C@@H](CCC(N)=O)C(=O)N[C@H](C(=O)N[C@@H](CC1CCC1)C(=O)O)C(C)(C)C [SORT1 peptide 2] |  |  | 0.152 |  |
| CCCC[C@@H]1NC(=O)[C@H](CCCNC(=N)N)NC(=O)[C@H](CCCCN)NC(=O)[C@H](CC(N)=O)NC(=O)[C@H](CCC(=O)O)NC(=O)[C@@H](NC(=O)[C@H](Cc2c[nH]c3ccccc23)NC(=O)[C@H](CCCNC(=N)N)NC(C)=O)CSSC[C@@H](C(=O)N[C@@H](CCCNC(=N)N)C(=O)N[C@@H](CCC(N)=O)C(=O)N[C@H](C(=O)N[C@@H](CC(C)(C)C)C(=O)O)C(C)(C)C)NC(=O)[C@H]([C@@H](C)O)NC(=O)[C@H](Cc2ccccc2)NC1=O [SORT1 peptide 3] (HELM PEPTIDE1{[ac].R.W.C.E.N.K.R.[Nle].F.T.C.R.Q.[CC(C)(C)[C@H](N[*:1])C(=O)[*:2]].[CC(C)(C)C[C@H](N[*:1])C(=O)O]}$PEPTIDE1,PEPTIDE1,4:R3-12:R3$$$V2.0; N-terminus and C-terminus assumed) |  |  | 0.191 |  |
